Columns and labels:
Type in all cases: cell-based
human TLR7 = human TLR7 (Homo sapiens (Human), UniProt Q9NYK1); assay: TLR7 inhibition reporter assay (HEK-Blue, SEAP); conditions: HEK-Blue cells overexpressing human TLR7, gardiquimod 7.5 μM stimulation
In short: (§1)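 HEK-Blue cells expressing human TLR7, TLR8 or TLR9 with NF-κB/AP-1-driven SEAP reporter; compounds 0.05 nM–50 μM, 30 min pre-treatment at room temperature. Stimulated with gardiquimod 7.5 μM (TLR7), R848 15.9 μM (TLR8) or ODN2006 5 nM (TLR9), 22 h at 37 °C; % inhibition of SEAP signal relative to agonist+DMSO and known-inhibitor wells.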

human TLR9 = human TLR9 (Homo sapiens (Human), UniProt Q9NR96); assay: TLR9 inhibition reporter assay (HEK-Blue, SEAP); conditions: HEK-Blue cells overexpressing human TLR9, ODN2006 5 nM stimulation
In short: as §1

human TLR8 = human TLR8 (Homo sapiens (Human), UniProt Q9NR97); assay: TLR8 inhibition reporter assay (HEK-Blue, SEAP); conditions: HEK-Blue cells overexpressing human TLR8, R848 15.9 μM stimulation
In short: as §1

human TLR9, sequence (Q9NR96 26-1032): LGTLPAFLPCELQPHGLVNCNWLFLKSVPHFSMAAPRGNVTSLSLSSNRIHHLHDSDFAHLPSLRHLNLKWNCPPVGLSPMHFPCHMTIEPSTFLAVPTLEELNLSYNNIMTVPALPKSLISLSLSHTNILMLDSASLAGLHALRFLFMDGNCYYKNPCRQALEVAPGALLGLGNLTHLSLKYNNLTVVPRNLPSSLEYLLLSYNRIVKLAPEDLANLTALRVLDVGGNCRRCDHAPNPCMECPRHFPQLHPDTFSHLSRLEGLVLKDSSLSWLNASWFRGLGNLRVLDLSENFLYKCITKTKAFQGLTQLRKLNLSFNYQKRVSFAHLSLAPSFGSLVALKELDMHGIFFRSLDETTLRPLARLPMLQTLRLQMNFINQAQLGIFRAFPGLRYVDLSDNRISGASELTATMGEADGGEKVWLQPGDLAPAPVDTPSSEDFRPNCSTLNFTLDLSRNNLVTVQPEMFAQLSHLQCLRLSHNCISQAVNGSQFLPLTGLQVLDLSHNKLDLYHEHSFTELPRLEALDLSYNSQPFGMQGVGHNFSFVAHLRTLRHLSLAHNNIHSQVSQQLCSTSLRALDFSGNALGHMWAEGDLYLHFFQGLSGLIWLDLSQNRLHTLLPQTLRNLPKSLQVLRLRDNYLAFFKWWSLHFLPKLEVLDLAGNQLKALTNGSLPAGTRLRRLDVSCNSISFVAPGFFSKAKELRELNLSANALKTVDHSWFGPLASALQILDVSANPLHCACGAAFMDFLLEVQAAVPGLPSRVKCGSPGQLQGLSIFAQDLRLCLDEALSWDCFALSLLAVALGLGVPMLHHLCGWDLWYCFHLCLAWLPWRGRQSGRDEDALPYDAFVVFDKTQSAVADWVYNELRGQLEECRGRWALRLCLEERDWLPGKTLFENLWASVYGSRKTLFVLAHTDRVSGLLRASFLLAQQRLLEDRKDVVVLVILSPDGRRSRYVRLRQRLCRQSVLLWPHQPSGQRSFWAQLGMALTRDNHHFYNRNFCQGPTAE
human TLR8, sequence (Q9NR97 27-1041): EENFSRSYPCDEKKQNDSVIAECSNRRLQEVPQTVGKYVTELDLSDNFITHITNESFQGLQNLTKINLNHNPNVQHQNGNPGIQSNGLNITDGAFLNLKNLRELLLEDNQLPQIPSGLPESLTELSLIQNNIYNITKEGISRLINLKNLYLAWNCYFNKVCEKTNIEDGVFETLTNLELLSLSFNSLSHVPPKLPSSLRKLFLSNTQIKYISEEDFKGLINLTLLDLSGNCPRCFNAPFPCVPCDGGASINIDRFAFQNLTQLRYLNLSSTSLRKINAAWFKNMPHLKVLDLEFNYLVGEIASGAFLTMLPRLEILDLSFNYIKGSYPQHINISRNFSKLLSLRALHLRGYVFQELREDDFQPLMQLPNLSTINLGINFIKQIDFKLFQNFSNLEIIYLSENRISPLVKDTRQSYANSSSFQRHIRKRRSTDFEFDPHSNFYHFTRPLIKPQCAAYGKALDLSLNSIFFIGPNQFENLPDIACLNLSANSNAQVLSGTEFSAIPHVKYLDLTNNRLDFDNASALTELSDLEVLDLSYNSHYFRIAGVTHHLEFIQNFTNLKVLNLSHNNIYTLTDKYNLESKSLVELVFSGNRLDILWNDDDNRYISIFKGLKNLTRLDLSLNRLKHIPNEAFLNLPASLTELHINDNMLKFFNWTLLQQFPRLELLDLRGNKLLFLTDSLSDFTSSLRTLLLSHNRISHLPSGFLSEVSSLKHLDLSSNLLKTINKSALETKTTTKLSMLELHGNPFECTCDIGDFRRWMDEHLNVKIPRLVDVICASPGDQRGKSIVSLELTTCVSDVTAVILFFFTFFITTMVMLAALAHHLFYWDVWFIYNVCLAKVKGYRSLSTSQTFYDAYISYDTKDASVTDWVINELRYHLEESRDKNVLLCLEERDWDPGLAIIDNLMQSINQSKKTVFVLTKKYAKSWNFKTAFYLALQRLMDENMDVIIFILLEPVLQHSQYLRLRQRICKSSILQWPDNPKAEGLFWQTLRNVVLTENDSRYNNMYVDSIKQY
human TLR7, sequence (Q9NYK1 27-1049): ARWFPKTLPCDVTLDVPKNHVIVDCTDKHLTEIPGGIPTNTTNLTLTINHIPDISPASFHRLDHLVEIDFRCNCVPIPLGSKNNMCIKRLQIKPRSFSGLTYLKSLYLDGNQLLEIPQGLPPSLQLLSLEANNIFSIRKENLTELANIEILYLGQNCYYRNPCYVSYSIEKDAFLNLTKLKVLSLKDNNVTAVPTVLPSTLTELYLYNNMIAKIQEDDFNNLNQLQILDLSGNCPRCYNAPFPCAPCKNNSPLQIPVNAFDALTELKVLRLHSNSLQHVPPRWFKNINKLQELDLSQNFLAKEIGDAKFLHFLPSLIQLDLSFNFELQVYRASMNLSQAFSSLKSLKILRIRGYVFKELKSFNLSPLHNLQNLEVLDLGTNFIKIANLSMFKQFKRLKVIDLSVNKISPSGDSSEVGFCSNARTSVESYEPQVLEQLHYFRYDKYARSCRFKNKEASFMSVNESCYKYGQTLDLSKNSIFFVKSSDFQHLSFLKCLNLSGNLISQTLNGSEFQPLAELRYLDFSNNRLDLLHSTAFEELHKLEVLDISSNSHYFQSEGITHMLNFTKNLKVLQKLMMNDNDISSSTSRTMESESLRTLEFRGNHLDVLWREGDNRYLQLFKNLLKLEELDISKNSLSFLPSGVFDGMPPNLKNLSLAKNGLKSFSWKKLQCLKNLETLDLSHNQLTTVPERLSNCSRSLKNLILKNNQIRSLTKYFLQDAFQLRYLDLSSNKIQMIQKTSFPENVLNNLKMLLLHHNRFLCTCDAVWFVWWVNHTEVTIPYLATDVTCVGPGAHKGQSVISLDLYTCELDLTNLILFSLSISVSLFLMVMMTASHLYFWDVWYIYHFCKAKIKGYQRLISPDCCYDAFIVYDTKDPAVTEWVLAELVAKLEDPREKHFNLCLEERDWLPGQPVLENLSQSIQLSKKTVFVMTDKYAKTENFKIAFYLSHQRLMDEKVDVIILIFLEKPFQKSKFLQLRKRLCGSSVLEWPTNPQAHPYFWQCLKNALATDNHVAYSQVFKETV

SMILES | IC50 (human TLR7) [nM] | IC50 (human TLR9) [nM] | IC50 (human TLR8) [nM]
Cc1cc(-c2[nH]c3ccc(-c4nnc(C(=O)NC5CCNC5)s4)cc3c2C(C)C)ccn1 (stereo not drawn) [Example 137, 5-(3-isopropyl-2-(2-methylpyridin-4-yl)-1H-indol-5-yl)-N-(pyrrolidin-3-yl)-1,3,4-thiadiazole-2-carboxamide] | 29 | 705 | 2.7
Cc1cc(-c2[nH]c3ccc(-c4nnc(C5CCN(C(=O)CN(C)C)CC5)o4)cc3c2C(C)C)ccn1 [Example 62, 2-(dimethylamino)-1-(4-(5-(3-isopropyl-2-(2-methylpyridin-4-yl)-1H-indol-5-yl)-1,3,4-oxadiazol-2-yl)piperidin-1-yl)ethan-1-one] | 31 | 743 | 2.2
CCc1c(-c2ccc(OC)c(OC)c2)[nH]c2ccc(-c3nnc(C(=O)NC4CCN(C(C)C)CC4)o3)cc12 [Example 39, 5-(2-(3,4-dimethoxyphenyl)-3-ethyl-1H-indol-5-yl)-N-(1-isopropylpiperidin-4-yl)-1,3,4-oxadiazole-2-carboxamide] | 93 | 433 | 7.9
COc1ccc(-c2[nH]c3ccc(-c4ccc(C5=CCN(C)CC5)cc4)cc3c2C)cc1OC [Example 376, 2-(3,4-dimethoxyphenyl)-3-methyl-5-(4-(1-methyl-1,2,3,6-tetrahydropyridin-4-yl)phenyl)-1H-indole] | 2880 | 2410 | 487
CC(C)c1c(-c2ccnc3[nH]ncc23)[nH]c2ccc(-c3nnc(C(=O)N4CCCN(C)CC4)o3)cc12 [Example 125, (5-(3-isopropyl-2-(1H-pyrazolo[3,4-b]pyridin-4-yl)-1H-indol-5-yl)-1,3,4-oxadiazol-2-yl)(4-methyl-1,4-diazepan-1-yl)methanone] | 183 | 776 | 40

The remaining lines, values ahead:

IC50 (human TLR7) [nM] | IC50 (human TLR9) [nM] | IC50 (human TLR8) [nM] | SMILES
947 | 721 | 28 | CCc1c(-c2ccc(OC)c(OC)c2)[nH]c2ccc(-c3ccc(N4CCNCC4)cc3)cc12 [Example 399, 2-(3,4-dimethoxyphenyl)-3-ethyl-5-(4-(piperazin-1-yl)phenyl)-1H-indole]
26 | 216 | 10 | Cc1cc(-c2[nH]c3ccc(-c4nnc(C5CCCN(C(C)C)C5)o4)cc3c2CC(F)F)cc(C)n1 (stereo not drawn) [Example 327, 2-(3-(2,2-difluoroethyl)-2-(2,6-dimethylpyridin-4-yl)-1H-indol-5-yl)-5-(1-isopropylpiperidin-3-yl)-1,3,4-oxadiazole]
881 | 2920 | 35 | COc1ccc(-c2[nH]c3ccc(-c4ccc(N5CCCN(C)CC5)cc4)cc3c2C(C)C)cc1OC [Example 380, 2-(3,4-dimethoxyphenyl)-3-isopropyl-5-(4-(4-methyl-1,4-diazepan-1-yl)phenyl)-1H-indole]
8.6 | 466 | 5.6 | Cc1cc(-c2[nH]c3ccc(-c4nc(C(=O)NCCCCN5CCCC5)co4)cc3c2C(C)C)cc(C)n1 [Example 285, 2-(2-(2,6-dimethylpyridin-4-yl)-3-isopropyl-1H-indol-5-yl)-N-(4-(pyrrolidin-1-yl)butyl)oxazole-4-carboxamide]
56 | > 50000 | 21 | Cc1cc(-c2[nH]c3ccc(-c4ccc(N(C)C)nc4)cc3c2C(C)C)ccn1 [Example 246, 5-(3-isopropyl-2-(2-methylpyridin-4-yl)-1H-indol-5-yl)-N,N-dimethylpyridin-2-amine]
680 | 35100 | 36 | CC(C)c1c(-c2ccnc3n[nH]cc23)[nH]c2ccc(-c3nccs3)cc12 [Example 181, 2-(3-isopropyl-2-(2H-pyrazolo[3,4-b]pyridin-4-yl)-1H-indol-5-yl)thiazole]
428 | > 50000 | 317 | COc1ccc(-c2[nH]c3ccc(-c4ccc(-c5cccc(CN(C)C)c5)cc4)cc3c2C(C)C)cc1OC [Example 374, 1-(4′-(2-(3,4-dimethoxyphenyl)-3-isopropyl-1H-indol-5-yl)-[1,1′-biphenyl]-3-yl)-N,N-dimethylmethanamine]
